Laboratory results from patent US9073911B2, “Pyrazole derivatives” (HOFFMANN-LA ROCHE INC., priority 2011, dated 2015).
Counter-ions that a name gives are not always drawn.

Columns and labels:
rat TAAR1 = rat TAAR1 (Rattus norvegicus (Rat), UniProt Q923Y9); assay: Radioligand binding assay on rat TAAR1; conditions: for Ki: membranes of HEK-293 cells stably expressing rat TAAR1, second value of cell mouse/rat
Experimental: (§1) Construction of TAAR Expression Plasmids and Stably Transfected Cell Lines
(§2) For the construction of expression plasmids the coding sequences of human, rat and mouse TAAR 1 were amplified from genomic DNA essentially as described by Lindemann et al.. The Expand High Fidelity PCR System (Roche Diagnostics) was used with 1.5 mM Mg^2+ and purified PCR products were cloned into pCR2.1-TOPO cloning vector (Invitrogen) following the instructions of the manufacturer. PCR products were subcloned into the pIRESneo2 vector (BD Clontech, Palo Alto, Calif.), and expression vectors were sequence verified before introduction in cell lines.
(§3) HEK293 cells (ATCC # CRL-1573) were cultured essentially as described by Lindemann et al. (2005). For the generation of stably transfected cell lines HEK293 cells were transfected with the pIRESneo2 expression plasmids containing the TAAR coding sequences (described above) with Lipofectamine 2000 (Invitrogen) according to the instructions of the manufacturer, and 24 hrs post transfection the culture medium was supplemented with 1 mg/ml G418 (Sigma, Buchs, Switzerland). After a culture period of about 10 d clones were isolated, expanded and tested for responsiveness to trace amines (all compounds purchased from Sigma) with the cAMP Biotrak Enzyme immunoassay (EIA) System (Amersham) following the non-acetylation EIA procedure provided by the manufacturer.
Radioligand Binding Assay on rat TAAR1
(§4) Membrane Preparation and Radioligand Binding.
HEK-293 cells stably expressing rat TAAR1 were maintained at 37° C. and 5% CO2 in DMEM high glucose medium, containing fetal calf serum (10%, heat inactivated for 30 min at 56° C.), penicillin/streptomycin (1%), and 375 μg/ml geneticin (Gibco). Cells were released from culture flasks using trypsin/EDTA, harvested, washed twice with ice-cold PBS (without Ca^2+ and Mg^2+), pelleted at 1,000 rpm for 5 min at 4° C., frozen and stored at −80° C. Frozen pellets were suspended in 20 ml HEPES-NaOH (20 mM, pH 7.4) containing 10 mM EDTA and homogenized with a Polytron (PT 6000, Kinematica) at 14,000 rpm for 20 s. The homogenate was centrifuged at 48,000×g for 30 min at 4° C. Subsequently, the supernatant was removed and discarded, and the pellet resuspended in 20 ml HEPES-NaOH (20 mM, pH 7.4) containing 0.1 mM EDTA using the Polytron (20 s at 14,000 rpm). This procedure was repeated and the final pellet resuspended in HEPES-NaOH containing 0.1 mM EDTA and homogenized using the Polytron. Typically, aliquots of 2 ml membrane portions were stored at −80° C. With each new membrane batch the dissociation constant (Kd) was determined via a saturation curve.
Nonspecific binding was defined as the amount of ^3-[H]-(S)-4-[(ethyl-phenyl-amino)-methyl]-4,5-dihydro-oxazol-2-ylamine bound in the presence of 10 μM unlabeled ligand. All compounds were tested at a broad range of concentrations (10 pM to 10 μM) in duplicates. […] The 96 deep well plates were incubated for 1 hr at 4° C. Incubations were terminated by rapid filtration through Unifilter-96 plates (Packard Instrument Company) and glass filters GF/C (Perkin Elmer) presoaked for 1 hr in polyethylenimine (0.3%) and washed 3 times with 1 ml of cold binding buffer. After addition of 45 μl of Microscint 40 (PerkinElmer) the Unifilter-96 plate was sealed and after 1 hr the ratioactivity counted using a TopCount Microplate Scintillation Counter (Packard Instrument Company).

mouse TAAR1 = mouse TAAR1 (Mus musculus (Mouse), UniProt Q923Y8); assay: Radioligand binding assay on mouse TAAR1; conditions: for Ki: membranes of HEK-293 cells stably expressing mouse TAAR1, first value of cell mouse/rat
Sequence of mouse TAAR1 (Q923Y8 whole entry): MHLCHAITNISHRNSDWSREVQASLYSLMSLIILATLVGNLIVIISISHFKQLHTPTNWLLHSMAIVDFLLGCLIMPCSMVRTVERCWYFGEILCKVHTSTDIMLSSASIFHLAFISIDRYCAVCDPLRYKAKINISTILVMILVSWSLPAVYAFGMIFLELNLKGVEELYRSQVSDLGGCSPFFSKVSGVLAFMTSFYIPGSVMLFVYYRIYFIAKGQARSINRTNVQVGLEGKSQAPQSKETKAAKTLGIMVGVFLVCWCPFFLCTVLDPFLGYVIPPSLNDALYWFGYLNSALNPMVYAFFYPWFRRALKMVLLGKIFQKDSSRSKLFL
Experimental: as §1, §2, §3
Radioligand Binding Assay on Mouse TAAR1
as §4
HEK-293 cells stably expressing mouse TAAR1 were maintained at 37° C. and 5% CO2 in DMEM high glucose medium, containing fetal calf serum (10%, heat inactivated for 30 min at 56° C.), penicillin/streptomycin (1%), and 375 μg/ml geneticin (Gibco). Cells were released from culture flasks using trypsin/EDTA, harvested, washed twice with ice-cold PBS (without Ca^2+ and Mg^2+), pelleted at 1,000 rpm for 5 min at 4° C., frozen and stored at −80° C. Frozen pellets were suspended in 20 ml HEPES-NaOH (20 mM, pH 7.4) containing 10 mM EDTA and homogenized with a Polytron (PT 6000, Kinematica) at 14,000 rpm for 20 s. The homogenate was centrifuged at 48,000×g for 30 min at 4° C. Subsequently, the supernatant was removed and discarded, and the pellet resuspended in 20 ml HEPES-NaOH (20 mM, pH 7.4) containing 0.1 mM EDTA using the Polytron (20 s at 14,000 rpm). This procedure was repeated and the final pellet resuspended in HEPES-NaOH containing 0.1 mM EDTA and homogenized using the Polytron. Typically, aliquots of 2 ml membrane portions were stored at −80° C. With each new membrane batch the dissociation constant (Kd) was determined via a saturation curve. The TAAR1 radioligand ^3[H]—(S)-4-[(ethyl-phenyl-amino)-methyl]-4,5-dihydro-oxazol-2-ylamine (described in WO 2008/098857) was used at a concentration equal to the calculated Kd value, that was usually around 0.7 nM, resulting in the binding of approximately 0.5% of the radioligand and a specific binding representing approximately 70% of the total binding. Nonspecific binding was defined as the amount of ^3[H]—(S)-4-[(ethyl-phenyl-amino)-methyl]-4,5-dihydro-oxazol-2-ylamine bound in the presence of 10 μM unlabeled ligand. All compounds were tested at a broad range of concentrations ([…]) in duplicates. […] The 96 deep well plates were incubated for 1 hr at 4° C. Incubations were terminated by rapid filtration through Unifilter-96 plates (Packard Instrument Company) and glass filters GF/C (Perkin Elmer) presoaked for 1 hr in polyethylenimine (0.3%) and washed 3 times with 1 ml of cold binding buffer. After addition of 45 μl of Microscint 40 (PerkinElmer) the Unifilter-96 plate was sealed and after 1 hr the radioactivity counted using a TopCount Microplate Scintillation Counter (Packard Instrument Company).

Sequence of rat TAAR1 (Q923Y9 whole entry): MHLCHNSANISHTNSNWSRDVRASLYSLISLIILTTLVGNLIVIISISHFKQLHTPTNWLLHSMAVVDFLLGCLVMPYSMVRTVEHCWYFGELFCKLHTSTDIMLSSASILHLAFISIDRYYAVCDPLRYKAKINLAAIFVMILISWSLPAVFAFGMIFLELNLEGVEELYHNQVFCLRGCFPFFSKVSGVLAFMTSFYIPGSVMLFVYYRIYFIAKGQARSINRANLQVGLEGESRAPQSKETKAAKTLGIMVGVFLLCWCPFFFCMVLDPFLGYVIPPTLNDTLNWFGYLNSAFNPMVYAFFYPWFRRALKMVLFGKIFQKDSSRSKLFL

Row | Kd (rat TAAR1; rat TAAR1 membranes, saturation curve, usual value, read-out: calculated Kd value of the TAAR1 radioligand) [nM] | Kd (mouse TAAR1; mouse TAAR1 membranes, saturation curve, usual value, read-out: calculated Kd value of the TAAR1 radioligand) [nM] | Structure (SMILES) | Ki (rat TAAR1) [µM] | Ki (mouse TAAR1) [µM]
1 | – | – | Cn1nc(-c2cccc(C#N)c2)cc1C(=O)Nc1ccc([C@H]2CNCCO2)cc1 [Example 24, (S)-3-(3-cyanophenyl)-1-methyl-N-(4-(morpholin-2-yl)phenyl)-1H-pyrazole-5-carboxamide hydrochloride] | 0.0142 | 0.0067
2 | – | – | Cc1c(-c2ccccc2)n[nH]c1C(=O)Nc1ccc([C@H]2CNCCO2)cc1 [Example 6, (S)-4-methyl-N-(4-(morpholin-2-yl)phenyl)-3-phenyl-1H-pyrazole-5-carboxamide hydrochloride] | 0.008 | 0.0016
3 | – | – | O=C(Nc1ccc([C@H]2CNCCO2)cc1)c1ccn(-c2ccc(OC(F)F)cc2)n1 [Example 45, (S)-1-(4-(Difluoromethoxy)phenyl)-N-(4-(morpholin-2-yl)phenyl)-1H-pyrazole-3-carboxamide hydrochloride] | 0.0014 | 0.0018
4 | – | – | O=C(Nc1ccc([C@H]2CNCCO2)cc1)c1cc(-c2ccccc2F)n[nH]1 [Example 8, (S)-3-(2-fluorophenyl)-N-(4-(morpholin-2-yl)phenyl)-1H-pyrazole-5-carboxamide hydrochloride] | 0.0073 | 0.0009
5 | – | – | O=C(Nc1ccc([C@H]2CNCCO2)cc1)c1ccn(-c2cncc(C(F)(F)F)n2)n1 [Example 52, (S)—N-(4-(Morpholin-2-yl)phenyl)-1-(6-(trifluoromethyl)pyrazin-2-yl)-1H-pyrazole-3-carboxamide hydrochloride] | 0.0074 | 0.0084
6 | – | – | COc1cccc(-c2cc(C(=O)Nc3ccc([C@@H]4CNCCO4)cc3)[nH]n2)c1 [Example 16, (R)-3-(3-methoxyphenyl)-N-(4-(morpholin-2-yl)phenyl)-1H-pyrazole-5-carboxamide hydrochloride] | 0.0014 | 0.0013
7 | – | – | O=C(Nc1ccc([C@H]2CNCCO2)cc1)c1ccn(-c2nccnc2Cl)n1 [Example 49, (S)-1-(3-Chloropyrazin-2-yl)-N-(4-(morpholin-2-yl)phenyl)-1H-pyrazole-3-carboxamide hydrochloride] | 0.139 | 0.0142
8 | – | – | O=C(Nc1ccc([C@@H]2CNCCO2)cc1)c1cc(-c2ccccc2Cl)n[nH]1 [Example 13, (R)-3-(2-chlorophenyl)-N-(4-(morpholin-2-yl)phenyl)-1H-pyrazole-5-carboxamide hydrochloride] | 0.001 | 0.0008
9 | – | – | O=C(Nc1ccc([C@H]2CNCCO2)cc1)c1ccn(-c2ccc(Cl)cn2)n1 [Example 32, (S)-1-(5-Chloropyridin-2-yl)-N-(4-(morpholin-2-yl)phenyl)-1H-pyrazole-3-carboxamide hydrochloride] | 0.0011 | 0.0007
10 | – | – | Cn1nc(-c2cccc(Cl)c2)cc1C(=O)Nc1ccc([C@H]2CNCCO2)cc1 [Example 17, (S)-3-(3-chlorophenyl)-1-methyl-N-(4-(morpholin-2-yl)phenyl)-1H-pyrazole-5-carboxamide hydrochloride] | 0.0024 | 0.0016
11 | – | – | N#Cc1cc(-c2cc(C(=O)Nc3ccc([C@H]4CNCCO4)cc3)[nH]n2)ccc1F [Example 39, (S)-5-(3-Cyano-4-fluorophenyl)-N-(4-(morpholin-2-yl)phenyl)-1H-pyrazole-3-carboxamide hydrochloride] | 0.003 | 0.0014
12 | – | – | O=C(Nc1ccc([C@H]2CNCCO2)cc1)c1ccn(-c2ccc(F)cc2)n1 [Example 29, (S)-1-(4-Fluorophenyl)-N-(4-(morpholin-2-yl)phenyl)-1H-pyrazole-3-carboxamide hydrochloride] | 0.0024 | 0.0011
13 | – | – | O=C(Nc1ccc([C@H]2CNCCO2)cc1)c1cc(-c2ccccc2)[nH]n1 [Example 1, (S)—N-(4-(morpholin-2-yl)phenyl)-5-phenyl-1H-pyrazole-3-carboxamide hydrochloride] | 0.0043 | 0.0007
14 | – | – | O=C(Nc1ccc([C@@H]2CNCCO2)cc1)c1ccn(-c2ccc(OC(F)F)cc2)n1 [Example 46, (R)-1-(4-(Difluoromethoxy)phenyl)-N-(4-(morpholin-2-yl)phenyl)-1H-pyrazole-3-carboxamide hydrochloride] | 0.0006 | 0.004
15 | – | – | O=C(Nc1ccc([C@H]2CNCCO2)cc1)c1ccn(-c2ccc(C(F)(F)F)cn2)n1 [Example 33, (S)—N-(4-(Morpholin-2-yl)phenyl)-1-(5-(trifluoromethyl)pyridin-2-yl)-1H-pyrazole-3-carboxamide hydrochloride] | 0.0016 | 0.0028
16 | ~2.3 | ~0.7 | CCN(C[C@H]1COC(N)=N1)c1ccccc1 [^3[H]—(S)-4-[(ethyl-phenyl-amino)-methyl]-4,5-dihydro-oxazol-2-ylamine, reference compound] | – | –
17 | – | – | O=C(Nc1ccc([C@H]2CNCCO2)cc1)c1ccn(-c2cc(C(F)(F)F)ncn2)n1 [Example 51, (S)—N-(4-(Morpholin-2-yl)phenyl)-1-(6-(trifluoromethyl)pyrimidin-4-yl)-1H-pyrazole-3-carboxamide hydrochloride] | 0.0071 | 0.0142
18 | – | – | CCn1nc(-c2cccc(OC(F)F)c2)cc1C(=O)Nc1ccc([C@H]2CNCCO2)cc1 [Example 42, (S)-3-(3-(Difluoromethoxy)phenyl)-1-ethyl-N-(4-(morpholin-2-yl)phenyl)-1H-pyrazole-5-carboxamide hydrochloride] | 0.0021 | 0.001
19 | – | – | Cn1nc(C(=O)Nc2ccc([C@H]3CNCCO3)cc2)cc1-c1ccccc1 [Example 18, (S)-1-methyl-N-(4-(morpholin-2-yl)phenyl)-5-phenyl-1H-pyrazole-3-carboxamide hydrochloride] | 0.0254 | 0.0017
20 | – | – | Cn1nc(-c2ccccc2)cc1C(=O)Nc1ccc([C@@H]2CNCCO2)cc1 [Example 19, (R)-1-methyl-N-(4-(morpholin-2-yl)phenyl)-3-phenyl-1H-pyrazole-5-carboxamide hydrochloride] | 0.0028 | 0.0079
